In patent US20130273180A1, “SYSTEM AND METHOD FOR IMPROVING OUTCOME OF CEREBRAL ISCHEMIA” (priority 2012, published 2013):
Entries after “also recorded” stand apart in the source; their conditions may differ.

Tests used:
[1] = test system: intubated rodents, carotid artery occlusion model; assay: Carotid artery occlusion model, Speckle laser Doppler, intubated rodents; type: in vivo
Procedure: (§1) In intubated rodents, the inventors have shown that cerebral blood flow increases by 100% within 60 minutes of intranasal nitric oxide delivery.
Increase in cerebral blood flow is attributable to focal intranasal or intra-oral effect of nitric oxide rather than to systemic absorption of the gas. […] The effect on cerebral blood flow during intranasal delivery of nitric oxide with concomitant air inhalation into the lungs is therefore a focal effect on intranasal and intracranial vasculature attributable specifically to nitric oxide. […] In a non-intubated patient, nitric oxide inhalation can be prevented by occluding the nasal cavity anterior or posterior to the site of gas delivery. This is achieved by means of an anterior occlusion device such a rigid member, an expandable member, a compressible member, a sponge, a porous member, a plug, a balloon, foam and/or combinations of the foregoing, which prevent inhalation through the nostrils while maintaining a high concentration of nitric oxide in the nasal cavity. A non-intubated patient may be allowed to inhale air into the lungs during nitric oxide delivery into the nasal cavity by an optional central lumen with the distal orifice beyond the sites of nasal gas delivery and occlusion device.

[2] = test system: humans (normal volunteers); assay: Tolerability of intranasal nitric oxide delivery in humans (normal volunteers); type: in vivo, human
Description: While nitric oxide may be given intranasally and without inhalation into the lungs to intubated, comatose individuals the tolerability of intranasal nitric oxide in awake humans has not previously been investigated. The inventors have tested the effect of nitric oxide in humans (normal volunteers) during intranasal delivery. […] Therefore it can easily be tolerated by awake, non-intubated patients.

intubated rodents = assay: Cerebral blood flow by cortical laser Doppler during intranasal nitric oxide in intubated rodents; type: in vivo
Procedure: as §1

[3] = test system: human with focal cerebral ischemia; assay: CT perfusion scanning before and after intranasal nitric oxide in intubated patients with cerebral ischemia; type: in vivo
[4] = Post Rx, one hour of intranasal non-inhaled nitric oxide

[N]=O [nitric oxide]
cerebral ischemia (FIG. 9) ([1]; Speckle laser Doppler tracing, intubated rodents): reduction | perfusion in the ischemic hemisphere ([1]; during the carotid occlusion and following ligature release): improved | sensation during intranasal delivery ([2]; concentrations up to 100 PPM, normal volunteers): does not elicit any sensation | tolerability of gas treatment ([2]; high concentration, delivered intra-nasally and without inhalation): tolerated | cerebral blood flow (FIG. 8) (intubated rodents; cortical laser Doppler, during intranasal administration): doubling | cerebral blood flow increase (intubated rodents; within 60 minutes of intranasal delivery, non-inhaled): 100% | Cerebral Blood Flow, Changes in ACA Watershed ([3]; Post Rx): Normalization, | Mean Transit Time, Changes in ACA Watershed ([3]; Post Rx): Normalization | increase in perfusion on L (ACA Watershed) ([3]; Post Rx versus Pre Rx, ischemic left hemisphere): 67% increase in | Cerebral Blood Flow, Left Hemisphere (ischemic) [3, 4]: 52 | Cerebral Blood Flow, Right Hemisphere (normal) [3, 4]: 45 | Mean Transit Time, Left Hemisphere (ischemic) [3, 4]: 6.0 s | Mean Transit Time, Right Hemisphere (normal) [3, 4]: 6.1 s | cerebral perfusion on CT perfusion scan ([3]; before and after treatment, human with focal cerebral ischemia): improvement; also recorded: augmentation of cerebral perfusion and normalization of regional perfusion abnormalities
